In patent US12421235B2, “Bridged tricyclic carbamoylpyridone compounds and uses thereof” (Gilead Sciences, Inc., priority 2020, dated 2025):

Experiments:
[1] = High throughput microsomal stability assay (human liver microsomes); format: in vitro ADME; settings: human liver microsomes, 1 uM compound, NADPH + UDPGA cofactors, 37 C
Summary of the method: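 Compounds at 1 uM final, incubated at 37° C. with liver microsomes (2 mg/ml stock, alamethicin-treated) in pH 7.4 phosphate plus NADPH-regenerating/UDPGA cofactors; samples taken 0–70 min. Parent/IS peak-area ratios read by RapidFire QToF MS; half-life from linear fit of initial log decay, scaled to intrinsic clearance.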

[2] = Cytotoxicity assay in MT-4 cells; format: cell-based; settings: human, uninfected MT-4 cells, Cell Titer Glo
Summary of the method: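 Uninfected MT-4 cells were incubated with 1:3 serially diluted compound in RPMI/10% FBS for 5 days at 37° C. Viability was read by CellTiter-Glo luminescence, with 10 μM puromycin as the baseline cytotoxicity control. Values are the concentration giving a 50% decrease in luminescence, from sigmoidal dose-response fits.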

[3] = tested on: pLai RLuc reporter virus in MT-4 cells; assay: HIV MT-4 serum shift antiviral reporter assay; format: cell-based; settings: Human immunodeficiency virus 1, MT4, 72 h, read-out: RLUC CCM
Summary of the method: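 MT-4 cells pre-infected 2 h with reporter virus, then dosed (1:3 dilutions) in medium with 10% FBS alone or plus 50% human serum; 72 h at 37 °C. Renilla luminescence read; EC50 = 50% signal decrease by sigmoidal fit, serum shift = EC50(HS)/EC50(no HS).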

[4] = tested on: HIV-1 (IIIB) in MT-4 cells; assay: HIV MT-4 antiviral assay; format: cell-based; settings: Human immunodeficiency virus 1, MT4, 120 h, 5 days, Cell Titer Glo
Summary of the method: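 MT-4 cells infected with HIV-1 IIIB (1:250 dilution of concentrated stock) were incubated 5 days at 37 °C with compound in 1:3 serial dilutions in RPMI/10% FBS. Viability was read by CellTiter-Glo luminescence. EC50 was the concentration causing a 50% decrease in luminescence signal, from sigmoidal dose-response fits.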

## CC[C@]1(O)CC[C@H](C)N2C[C@H]1n1cc(C(=O)NCc3c(F)cc(F)cc3F)c(=O)c(O)c1C2=O [Example 28, (3S,6S,7R)-6-ethyl-6,12-dihydroxy-3-methyl-1,11-dioxo-N-(2,4,6-trifluorobenzyl)-1,4,5,6,7,11-hexahydro-3H-2,7-methanopyrido[1,2-a][1,4]diazonine-10-carboxamide]
[1]
  HLM stability: 5.67 mL/min/kg
[2]
  CC50 at 5 days: 24400 nM
[3]
  EC50: 0.96 nM
[4]
  EC50: 4.1 nM

## [2H]C([2H])([2H])[C@]1(O)C=C[C@H](C)N2C[C@H]1n1cc(C(=O)NCc3c(F)cc(F)cc3F)c(=O)c(O)c1C2=O [Example 29, (1R,10S,13S)-6,13-dihydroxy-10-methyl-5,8-dioxo-13-(trideuteriomethyl)-N-[(2,4,6-trifluorophenyl)methyl]-2,9-diazatricyclo[7.4.1.02,7]tetradeca-3,6,11-triene-4-carboxamide]
[1]
  HLM stability: 1.83 mL/min/kg
[2]
  CC50 at 5 days: 13000 nM
[3]
  EC50: 0.74 nM
[4]
  EC50: 2 nM

## [2H]C([2H])([2H])[C@]1(O)CC[C@H](C)N2C[C@H]1n1cc(C(=O)NCc3ccc(F)cc3F)c(=O)c(O)c1C2=O [Example 31, (1R,10S,13S)—N-[(2,4-difluorophenyl)methyl]-6,13-dihydroxy-10-methyl-5,8-dioxo-13-(trideuteriomethyl)-2,9-diazatricyclo[7.4.1.02,7]tetradeca-3,6-diene-4-carboxamide]
[1]
  HLM stability: 3 mL/min/kg
[2]
  CC50 at 5 days: 8230 nM
[3]
  EC50: 0.36 nM
[4]
  EC50: 2.1 nM

## C[C@H]1CC[C@@](C)(O)[C@H]2CN1C(=O)c1c(O)c(=O)c(C(=O)NCc3ccc(F)cc3F)cn12 [Example 33, (1R,10S,13R)—N-[(2,4-difluorophenyl)methyl]-6,13-dihydroxy-10,13-dimethyl-5,8-dioxo-2,9-diazatricyclo[7.4.1.02,7]tetradeca-3,6-diene-4-carboxamide]
[1]
  HLM stability: 5.83 mL/min/kg
[2]
  CC50 at 5 days: 22800 nM
[3]
  EC50: 0.36 nM
[4]
  EC50: 2.1 nM

## [2H]C([2H])([2H])O[C@H]1CC[C@H](C)N2C[C@H]1n1cc(C(=O)NCc3ccc(F)cc3F)c(=O)c(O)c1C2=O [Example 34, (3S,6S,7R)—N-(2,4-difluorobenzyl)-12-hydroxy-6-(methoxy-d3)-3-methyl-1,11-dioxo-1,4,5,6,7,11-hexahydro-3H-2,7-methanopyrido[1,2-a][1,4]diazonine-10-carboxamide]
[1]
  HLM stability: 4.17 mL/min/kg
[2]
  CC50 at 5 days: 15100 nM
[3]
  EC50: 0.42 nM
[4]
  EC50: 0.9 nM

## CO[C@@H]1C[C@H](F)[C@H](C)N2C[C@H]1n1cc(C(=O)NCc3c(F)cc(F)cc3F)c(=O)c(O)c1C2=O [Example 37, (3S,4S,6R,7R)-4-fluoro-12-hydroxy-6-methoxy-3-methyl-1,11-dioxo-N-(2,4,6-trifluorobenzyl)-1,4,5,6,7,11-hexahydro-3H-2,7-methanopyrido[1,2-a][1,4]diazonine-10-carboxamide]
[1]
  HLM stability: 2.83 mL/min/kg
[2]
  CC50 at 5 days: 14800 nM
[3]
  EC50: 0.65 nM
[4]
  EC50: 1.4 nM

## CO[C@H]1C[C@@H](F)[C@H](C)N2C[C@H]1n1cc(C(=O)NCc3c(F)cc(F)cc3F)c(=O)c(O)c1C2=O [Example 39, (3S,4R,6S,7R)-4-fluoro-12-hydroxy-6-methoxy-3-methyl-1,11-dioxo-N-(2,4,6-trifluorobenzyl)-1,4,5,6,7,11-hexahydro-3H-2,7-methanopyrido[1,2-a][1,4]diazonine-10-carboxamide]
[1]
  HLM stability: 4.67 mL/min/kg
[2]
  CC50 at 5 days: 11700 nM
[3]
  EC50: 1.5 nM
[4]
  EC50: 1.5 nM

## CO[C@H]1C[C@H](F)[C@H](C)N2C[C@H]1n1cc(C(=O)NCc3c(F)cc(F)cc3F)c(=O)c(O)c1C2=O [Example 40, (3S,4S,6S,7R)-4-fluoro-12-hydroxy-6-methoxy-3-methyl-1,11-dioxo-N-(2,4,6-trifluorobenzyl)-1,4,5,6,7,11-hexahydro-3H-2,7-methanopyrido[1,2-a][1,4]diazonine-10-carboxamide]
[1]
  HLM stability: 4.67 mL/min/kg
[2]
  CC50 at 5 days: 19600 nM
[3]
  EC50: 2.87 nM
[4]
  EC50: 1.1 nM

## CO[C@H]1CC[C@H](CF)N2C[C@H]1n1cc(C(=O)NCc3ccc(F)cc3F)c(=O)c(O)c1C2=O [Example 41, (3R,6S,7R)—N-(2,4-difluorobenzyl)-3-(fluoromethyl)-12-hydroxy-6-methoxy-1,11-dioxo-1,4,5,6,7,11-hexahydro-3H-2,7-methanopyrido[1,2-a][1,4]diazonine-10-carboxamide]
[1]
  HLM stability: 1.83 mL/min/kg
[2]
  CC50 at 5 days: 19400 nM
[3]
  EC50: 0.56 nM
[4]
  EC50: 1.7 nM

## CO[C@H]1CC[C@@H](C)N2C[C@H]1n1cc(C(=O)NCc3ccc(F)cc3F)c(=O)c(O)c1C2=O [Example 42, (3R,6S,7R)—N-(2,4-difluorobenzyl)-12-hydroxy-6-methoxy-3-methyl-1,11-dioxo-1,4,5,6,7,11-hexahydro-3H-2,7-methanopyrido[1,2-a][1,4]diazonine-10-carboxamide]
[1]
  HLM stability: 9.67 mL/min/kg
[2]
  CC50 at 5 days: 50000 nM
[3]
  EC50: 0.61 nM
[4]
  EC50: 1.9 nM

## C[C@H]1CC[C@H](O)[C@@]2(C)CN1C(=O)c1c(O)c(=O)c(C(=O)NCc3ccc(F)cc3F)cn12 [Example 43, (3S,6S,7R)—N-(2,4-difluorobenzyl)-6,12-dihydroxy-3,7-dimethyl-1,11-dioxo-1,4,5,6,7,11-hexahydro-3H-2,7-methanopyrido[1,2-a][1,4]diazonine-10-carboxamide]
[1]
  HLM stability: 4.83 mL/min/kg
[2]
  CC50 at 5 days: 23600 nM
[3]
  EC50: 0.71 nM
[4]
  EC50: 1.3 nM

## C[C@H]1CC[C@@](O)(CF)[C@H]2CN1C(=O)c1c(O)c(=O)c(C(=O)NCc3c(F)cc(F)cc3F)cn12 [Example 44, (3S,6S,7R)-6-(fluoromethyl)-6,12-dihydroxy-3-methyl-1,11-dioxo-N-(2,4,6-trifluorobenzyl)-1,4,5,6,7,11-hexahydro-3H-2,7-methanopyrido[1,2-a][1,4]diazonine-10-carboxamide]
[1]
  HLM stability: 3.67 mL/min/kg
[2]
  CC50 at 5 days: 44700 nM
[3]
  EC50: 1.9 nM
[4]
  EC50: 4 nM

## C[C@H]1[C@H]2CO[C@H](C2)[C@H]2CN1C(=O)c1c(O)c(=O)c(C(=O)NCc3ccc(F)cc3F)cn12 [Example 45, (3S,4S,7R,8R)—N-(2,4-difluorobenzyl)-13-hydroxy-3-methyl-1,12-dioxo-1,4,5,7,8,12-hexahydro-3H-2,8:4,7-dimethanopyrido[1,2-d][1,4,7]oxadiazecine-11-carboxamide]
[1]
  HLM stability: 2.83 mL/min/kg
[2]
  CC50 at 5 days: 12400 nM
[3]
  EC50: 0.46 nM
[4]
  EC50: 1.9 nM
